According to PubChem BioAssay (NCI):
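The compound was tested at five concentrations on cells cultured in 96-well plates, with a 48-hour exposure period. Definition used: TGI = concentration required for complete inhibition of growth.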

How the values were obtained:
Assay in all cases: NCI-60 cell line screen, 48 h
HCC-2998 colon = test system: HCC-2998 colon
HCT-116 colon = test system: HCT-116 colon
SF-268 CNS = test system: SF-268 CNS
NCI-H460 lung = test system: NCI-H460 lung
NCI/ADR-RES ovarian = test system: NCI/ADR-RES ovarian
OVCAR-4 ovarian = test system: OVCAR-4 ovarian
SF-539 CNS = test system: SF-539 CNS
OVCAR-8 ovarian = test system: OVCAR-8 ovarian
A549 NSCLC = test system: A549 NSCLC
T-47D breast = test system: T-47D breast

| SMILES | TGI (HCC-2998 colon) [µM] | TGI (HCT-116 colon) [µM] | TGI (SF-268 CNS) [µM] | TGI (NCI-H460 lung) [µM] | TGI (NCI/ADR-RES ovarian) [µM] | TGI (OVCAR-4 ovarian) [µM] | TGI (SF-539 CNS) [µM] | TGI (OVCAR-8 ovarian) [µM] | TGI (A549 NSCLC) [µM] | TGI (T-47D breast) [µM] |
| --- | --- | --- | --- | --- | --- | --- | --- | --- | --- | --- |
| CN1C(=O)[C@](C)(Cc2ccc(F)cc2)N(C(=O)OC(C)(C)C)[C@@H]1C(C)(C)C | 76.2 | > 100 | > 100 | > 100 | 44.8 | > 100 | > 100 | 91.7 | > 100 | 90.1 |
| O=C1CSC2=NC3=C(COC/C3=C\c3ccc(F)cc3)C(c3ccc(F)cc3)N12 (configuration not stated) | > 100 | > 100 | > 100 | > 100 | > 100 | > 100 | > 100 | > 100 | – | > 100 |
| COc1cc(C)c(S(=O)(=O)N(CCCN)OCCCN)c(C)c1C | 57.1 | > 100 | > 100 | > 100 | > 100 | > 100 | – | > 100 | > 100 | > 100 |
| CC(=O)OCC12C(OC(C)=O)C[C@@H](C)C3(CC(c4ccoc4)OC3=O)C1CCC(OC(C)=O)C21CO1 (some centres not stated) | > 100 | > 100 | > 100 | > 100 | > 100 | > 100 | > 100 | > 100 | > 100 | > 100 |
| CC(=O)c1c2c(cc3c1CCC3)CCC2 | > 100 | > 100 | > 100 | > 100 | > 100 | > 100 | > 100 | > 100 | > 100 | 46.8 |
| COc1ccc2c(-c3csc(-c4c[nH]c5ccccc45)n3)c[nH]c2c1 | 30.4 | 19 | 26 | 13.7 | > 81.6 | 69.8 | 65.5 | > 60.6 | 53.7 | > 100 |
| CN(C)/C=C/C(=O)c1cccc(C(=O)/C=C/N(C)C)n1 | > 100 | > 100 | > 100 | > 100 | – | > 100 | > 100 | > 100 | > 100 | – |
| CCOC(=O)CCN1C(=O)c2c(NC(=O)C(=O)O)cccc2S1(=O)=O | > 100 | > 100 | > 100 | > 100 | > 100 | > 100 | – | > 100 | > 100 | > 100 |
| Fc1sc2c(c1F)C1CCC2C1 (configuration not stated) | > 100 | > 100 | > 100 | > 100 | > 100 | > 100 | > 100 | > 100 | > 100 | > 100 |
| CC1CN=C(N(C(=O)Nc2ccccc2)C2CCCCC2)S1 (configuration not stated) | 34.6 | 33.1 | 46 | 33.9 | 33.3 | 30.2 | 43.2 | 75 | 34.2 | 92.7 |
| O=S1(=O)OCCOS(=O)(=O)C1S(=O)(=O)c1cccc2ccccc12 | > 100 | 57.1 | – | > 100 | > 100 | > 100 | – | > 100 | > 100 | – |
| Nc1nn2cc(-c3ccccc3)[n+](CC(=O)c3ccccc3)c2s1 | 31.7 | 30.3 | 50.6 | > 100 | > 100 | – | 42.3 | > 100 | > 100 | 55 |
| CC1CC2OC(=N)C1(C#N)C2(C#N)C#N (configuration not stated) | 34.4 | 43.3 | 66.3 | – | > 100 | – | 56.7 | > 100 | > 100 | 97.4 |
| COc1ccc(C(OCC2OC(n3ccc(Oc4c(F)c(F)c(F)c(F)c4F)nc3=O)CC2OP(OCCC#N)N(C(C)C)C(C)C)(c2ccccc2)c2ccc(OC)cc2)cc1 (configuration not stated) | > 100 | > 100 | > 100 | > 100 | > 100 | – | > 100 | > 100 | > 100 | > 100 |
| CC1[C@@H]2C[C@@H]3O[C@@]34[C@H]3CCC5Cc6nc7c(nc6C[C@@]5(C)C3(O)CC(=O)[C@@]24CO[C@]12OC(C)(C)CC2O)CC1CC[C@@H]2C3=C[C@H]4O[C@@]5(O[C@@](C)(CO)C[C@@H]5O)C(C)[C@@]4(O)[C@]3(C)[C@@H](O)CC2[C@]1(C)C7 (some centres not stated) | > 3.52 | > 3.52 | 0.683 | 0.479 | > 3.52 | > 3.52 | 0.115 | > 3.52 | 1.16 | – |
| C/C(=N/NC(=O)c1ccccc1Nc1ccccc1C(=O)N/N=C(\C)c1ccc(C)cc1)c1ccc(C)cc1 | > 100 | > 100 | > 100 | > 100 | > 100 | > 100 | – | > 100 | > 100 | > 100 |
| CCOC(=O)C1=C(C)N(c2ccc(Cl)cc2)C2(O)C=CC(=O)C3C(=O)N(c4ccccc4)C(=O)C132 (configuration not stated) | – | 3.14 | 4.54 | 4.97 | 6.72 | 3.25 | 9.4 | 6.32 | 10.5 | 6.55 |
| O=C(c1cccs1)N(C(=O)N1CCCCC1)c1ccccc1 | – | > 100 | > 100 | – | > 100 | – | > 100 | > 100 | – | > 100 |
| CN(C)CC(C)(C)C(=O)/C=C/c1ccccc1 | – | 27.4 | – | 74.6 | – | 31.6 | 32.3 | > 100 | > 100 | – |
| COC1OC2COC(c3ccccc3)OC2C(OC(=S)c2ccccc2)C1O (configuration not stated) | – | – | > 100 | > 100 | 79 | > 100 | 27.7 | 39.3 | 33.7 | 59.5 |
| O=C(Nc1ccccc1C(=O)O)C(=Cc1ccccc1O)NC(=O)c1ccccc1 | > 100 | > 100 | > 100 | > 100 | > 100 | – | > 100 | > 100 | > 100 | > 100 |
| N#Cc1c(NC(=S)Nc2ccccc2)sc2c1CCCC2 | > 100 | > 100 | > 100 | > 100 | > 100 | > 100 | – | > 100 | – | > 100 |
